Assay results taken from patent publication US20230365561A1, “BETA-LACTAMASE INHIBITORS AND THEIR PREPARATION” (NINGXIA ACADEMY OF AGRICUL TURE AND FORESTRY SCIENCES, priority 2020, published 2023).
Structures can show the parent of a compound that is named as a salt. Where two headings read alike, the source gives them in different places.

Tests used:
Format in all cases: cell-based
[1] = system: K. pneumoniae clinical isolate (strain 3); assay: MIC by broth microdilution (alone and in combination with meropenam), strain 3; conditions: Klebsiella pneumoniae, compound alone
Method: (§1) Compounds of the present invention alone, meropenam (MER) alone, and as a combination with test antibiotic (meropenam) were tested for antimicrobial activity by determing minimum inhibitory concentration (MIC, mg/L) using the broth microdilution method according to the guidelines of the Clinical Laboratories and Stansards Insitute (“Methods for Dilution Antimicrobial Suscetibility Tests for Bacterial that Grow Aerobiclly”, Approved standard, […]., Clinical and Laboratories Stanards Institute (CLSI) Document M7-A8, Wayne, Pa., USA, 2009). Meropenam as a test antibiotic compound was dissolved in DMSO. Meropenam was then diluted in microbial growth medium (Mueller-Hinton Broth II, cation adjusted) resulting in a final concention range of 0.125-64 mg/L in serial two-fold dilution. In all cases the filnal DMSO concentraion was less than 0.5%. Bacteria were added to 96-well microtitre plates containing the serial two-fold dilutions of the compoumds; the final cell density was appoximately 5x10^5 colony forming units/mL (CFU/mL). Plates were incubated at 37° C. for 18-24 hours and read visually. The MIC, i.e. the lowest concentration of the test compound that inhibited visible growth of the bacteria, was recorded. The same assay conditions were used when the compounds of present invention alone, and as a combination with test meropenam antibiotic compound was tested for minmum inhibitory concentration (MIC, mg/L). Whileest meropenam was serially diluted as descrribed above, a constant concentration of the present invention of 4 µg/mL was used.
(§2) Bacterial strains that were used to evaluate the antimicrobial activity using the MIC determination included but were not limited to E. coli clinical isolate (strain 1), E. coli 8739 (strain 2), K. pneumoniae clinical isolate (strain 3), K. pneumoniae 700603 (strain 4), E. cloacae clinical isolate (strain 5), E. cloacae 700323 (strain 6), A. baumannii clinical isolate (strain 7), A. baumannii 19606 (strain 8), P. aeruginosa clinical isolate (strain 9), P. aeruginosa 9027 (strain 10).

E. coli 8739 (strain 2) = assay: MIC by broth microdilution (alone and in combination with meropenam), strain 2; conditions: Escherichia coli, compound alone
Method: as §1, §2

[2] = system: P. aeruginosa clinical isolate (strain 9); assay: MIC by broth microdilution (alone and in combination with meropenam), strain 9; conditions: Pseudomonas aeruginosa, compound alone
Method: as §1, §2

[3] = system: A. baumannii 19606 (strain 8); assay: MIC by broth microdilution (alone and in combination with meropenam), strain 8; conditions: Acinetobacter baumannii, compound alone
Method: as §1, §2

[4] = system: A. baumannii clinical isolate (strain 7); assay: MIC by broth microdilution (alone and in combination with meropenam), strain 7; conditions: Acinetobacter baumannii, compound alone
Method: as §1, §2

[5] = system: P. aeruginosa 9027 (strain 10); assay: MIC by broth microdilution (alone and in combination with meropenam), strain 10; conditions: Pseudomonas aeruginosa, compound alone
Method: as §1, §2

[6] = system: E. cloacae 700323 (strain 6); assay: MIC by broth microdilution (alone and in combination with meropenam), strain 6; conditions: Enterobacter cloacae, compound alone
Method: as §1, §2

[7] = system: K. pneumoniae 700603 (strain 4); assay: MIC by broth microdilution (alone and in combination with meropenam), strain 4; conditions: Klebsiella pneumoniae, compound alone
Method: as §1, §2

[8] = system: E. coli clinical isolate (strain 1); assay: MIC by broth microdilution (alone and in combination with meropenam), strain 1; conditions: Escherichia coli, compound alone
Method: as §1, §2

[9] = system: E. cloacae clinical isolate (strain 5); assay: MIC by broth microdilution (alone and in combination with meropenam), strain 5; conditions: Enterobacter cloacae, compound alone
Method: as §1, §2

[10] = read-out: MIC, antibacterial activity of example alone

Measured: MIC

N=C(NC(=O)CCN)[C@@H]1CC[C@@H]2CN1C(=O)N2OS(=O)(=O)[O-].[Na+] [Ex.11, Sodium (2S,5R)-2-(N-(3-aminopropanoyl)carbamimidoyl)-7-oxo-1,6-diazabicyclo[3.2.1]octan-6-yl Sulfate]
> 64 µg/mL: [1]; [10] | E. coli 8739 (strain 2); [10] | [2]; [10] | [3]; [10] | [4]; [10] | [5]; [10] | [6]; [10] | [7]; [10] | [8]; [10] | [9]; [10]

N=C(NC(=O)c1ccc(C(F)(F)F)nc1)[C@@H]1CC[C@@H]2CN1C(=O)N2OS(=O)(=O)[O-].[Na+] [Ex.6, Sodium (2S,5R)-7-oxo-2-(N-(6-(trifluoromethyl)nicotinoyl)carbamimidoyl)-1,6-diazabicyclo[3.2.1]octan-6-yl Sulfate]
> 64 µg/mL: [1]; [10] | E. coli 8739 (strain 2); [10] | [2]; [10] | [3]; [10] | [4]; [10] | [5]; [10] | [6]; [10] | [7]; [10] | [8]; [10] | [9]; [10]

N=C(NC(=O)c1ccncn1)[C@@H]1CC[C@@H]2CN1C(=O)N2OS(=O)(=O)[O-].[Na+] [Ex.48, Sodium (2S,5R)-7-oxo-2-(N-(pyrimidine-4-carbonyl)carbamimidoyl)-1,6-diazabicyclo[3.2.1]octan-6-yl Sulfate]
> 64 µg/mL: [1]; read-out: MIC | E. coli 8739 (strain 2); read-out: MIC | [2]; read-out: MIC | [3]; read-out: MIC | [4]; read-out: MIC | [5]; read-out: MIC | [6]; read-out: MIC | [7]; read-out: MIC | [8]; read-out: MIC | [9]; read-out: MIC

N=C(NC(=O)c1ccncc1)[C@@H]1CC[C@@H]2CN1C(=O)N2OS(=O)(=O)O [Ex.7, (2S,5R)-2-(N-isonicotinoylcarbamimidoyl)-7-oxo-1,6-diazabicyclo[3.2.1]octan-6-yl Hydrogen Sulfate]
> 64 µg/mL: [1]; [10] | E. coli 8739 (strain 2); [10] | [2]; [10] | [3]; [10] | [4]; [10] | [5]; [10] | [6]; [10] | [7]; [10] | [8]; [10] | [9]; [10]

N=C(NC(=O)c1cocn1)[C@@H]1CC[C@@H]2CN1C(=O)N2OS(=O)(=O)[O-].[Na+] [Ex.20, Sodium (2S,5R)-2-(N-(oxazole-4-carbonyl)carbamimidoyl)-7-oxo-1,6-diazabicyclo[3.2.1]octan-6-yl Sulfate]
> 64 µg/mL: [1]; [10] | E. coli 8739 (strain 2); [10] | [2]; [10] | [3]; [10] | [4]; [10] | [5]; [10] | [6]; [10] | [7]; [10] | [8]; [10] | [9]; [10]

CN1CCN(CC(=O)NC(=N)[C@@H]2CC[C@@H]3CN2C(=O)N3OS(=O)(=O)[O-])CC1.[Na+] [Ex.42, Sodium (2S,5R)-2-(N-(2-(4-methylpiperazin-1-yl)acetyl)carbamimidoyl)-7-oxo-1,6-diazabicyclo[3.2.1]octan-6-yl Sulfate]
> 64 µg/mL: [1]; [10] | E. coli 8739 (strain 2); [10] | [2]; [10] | [3]; [10] | [4]; [10] | [5]; [10] | [6]; [10] | [7]; [10] | [8]; [10] | [9]; [10]

N=C(NC(=O)c1cncnc1)[C@@H]1CC[C@@H]2CN1C(=O)N2OS(=O)(=O)O [Ex.10, Sodium (2S,5R)-7-oxo-2-(N-(pyrimidine-5-carbonyl)carbamimidoyl)-1,6-diazabicyclo[3.2.1]octan-6-yl Sulfate]
> 64 µg/mL: [1]; [10] | E. coli 8739 (strain 2); [10] | [2]; [10] | [3]; [10] | [4]; [10] | [5]; [10] | [6]; [10] | [7]; [10] | [8]; [10] | [9]; [10]

N=C(NC(=O)CN1CCCCC1)[C@@H]1CC[C@@H]2CN1C(=O)N2OS(=O)(=O)[O-].[Na+] [Ex.35, Sodium (2S,5R)-7-oxo-2-(N-(2-(piperidin-1-yl)acetyl)carbamimidoyl)-1,6-diazabicyclo[3.2.1]octan-6-yl Sulfate]
> 64 µg/mL: [1]; [10] | E. coli 8739 (strain 2); [10] | [2]; [10] | [3]; [10] | [4]; [10] | [5]; [10] | [6]; [10] | [7]; [10] | [8]; [10] | [9]; [10]

CN1CC[C@@H](C(=O)NC(=N)[C@@H]2CC[C@@H]3CN2C(=O)N3OS(=O)(=O)O)C1 [Ex.33, Sodium (2S,5R)-2-(N-((R)-1-methylpyrrolidine-3-carbonyl)carbamimidoyl)-7-oxo-1,6-diazabicyclo[3.2.1]octan-6-yl Sulfate]
> 64 µg/mL: [1]; [10] | E. coli 8739 (strain 2); [10] | [2]; [10] | [3]; [10] | [4]; [10] | [5]; [10] | [6]; [10] | [7]; [10] | [8]; [10] | [9]; [10]

N=C(NC(=O)c1csc(C(F)(F)F)n1)[C@@H]1CC[C@@H]2CN1C(=O)N2OS(=O)(=O)[O-].[Na+] [Ex.24, Sodium (2S,5R)-7-oxo-2-(N-(2-(trifluoromethyl)thiazole-4-carbonyl)carbamimidoyl)-1,6-diazabicyclo[3.2.1]octan-6-yl Sulfate]
> 64 µg/mL: [1]; [10] | E. coli 8739 (strain 2); [10] | [2]; [10] | [3]; [10] | [4]; [10] | [5]; [10] | [6]; [10] | [7]; [10] | [8]; [10] | [9]; [10]

N=C(NC(=O)CCc1ccccn1)[C@@H]1CC[C@@H]2CN1C(=O)N2OS(=O)(=O)[O-].[Na+] [Ex.13, Sodium (2S,5R)-7-oxo-2-(N-(3-(pyridin-2-yl)propanoyl)carbamimidoyl)-1,6-diazabicyclo[3.2.1]octan-6-yl Sulfate]
> 64 µg/mL: [1]; [10] | E. coli 8739 (strain 2); [10] | [2]; [10] | [3]; [10] | [4]; [10] | [5]; [10] | [6]; [10] | [7]; [10] | [8]; [10] | [9]; [10]

N=C(NC(=O)C1CCCN=N1)[C@@H]1CC[C@@H]2CN1C(=O)N2OS(=O)(=O)[O-].[Na+] (stereo partly drawn) [Ex.52, Sodium (2S,5R)-7-oxo-2-(N-(3,4,5,6-tetrahydropyridazine-3-carbonyl)carbamimidoyl)-1,6-diazabicyclo[3.2.1]octan-6-yl Sulfate]
> 64 µg/mL: [1]; read-out: MIC | E. coli 8739 (strain 2); read-out: MIC | [2]; read-out: MIC | [3]; read-out: MIC | [4]; read-out: MIC | [5]; read-out: MIC | [6]; read-out: MIC | [7]; read-out: MIC | [8]; read-out: MIC | [9]; read-out: MIC

CN1CCC[C@H](C(=O)NC(=N)[C@@H]2CC[C@@H]3CN2C(=O)N3OS(=O)(=O)[O-])C1.[Na+] [Ex.28, Sodium (2S,5R)-2-(N-((S)-1-methylpiperidine-3-carbonyl)carbamimidoyl)-7-oxo-1,6-diazabicyclo[3.2.1]octan-6-yl Sulfate]
> 64 µg/mL: [1]; [10] | E. coli 8739 (strain 2); [10] | [2]; [10] | [3]; [10] | [4]; [10] | [5]; [10] | [6]; [10] | [7]; [10] | [8]; [10] | [9]; [10]

N=C(NC(=O)c1nc(N)cs1)[C@@H]1CC[C@@H]2CN1C(=O)N2OS(=O)(=O)[O-].[Na+] [Ex.22, Sodium (2S,5R)-2-(N-(4-aminothiazole-2-carbonyl)carbamimidoyl)-7-oxo-1,6-diazabicyclo[3.2.1]octan-6-yl Sulfate]
> 64 µg/mL: [1]; [10] | E. coli 8739 (strain 2); [10] | [2]; [10] | [3]; [10] | [4]; [10] | [5]; [10] | [6]; [10] | [7]; [10] | [8]; [10] | [9]; [10]

CC(=O)N1CCC[C@@H](C(=O)NC(=N)[C@@H]2CC[C@@H]3CN2C(=O)N3OS(=O)(=O)[O-])C1.[Na+] [Ex.27, Sodium (2S,5R)-2-(N-((R)-1-acetylpiperidine-3-carbonyl)carbamimidoyl)-7-oxo-1,6-diazabicyclo[3.2.1]octan-6-yl Sulfate]
> 64 µg/mL: [1]; [10] | E. coli 8739 (strain 2); [10] | [2]; [10] | [3]; [10] | [4]; [10] | [5]; [10] | [6]; [10] | [7]; [10] | [8]; [10] | [9]; [10]
